Values joined by “and” are separate entries in the source; they are usually repeats but may differ in a detail not shown here. Equal values may be shown once.
What was measured:
[1] = for mass density: Liquid; for Normal melting temperature: Crystal, visual observation
[2] = xn = mol fraction of the nth substance listed; details: 101 kPa, Liquid

c1ccccc1 [benzene]
[1], 101 kPa
Details	mass density [kg/m3]
298.15 K	873.63
308.15 K	862.91
318.15 K	852.12
328.15 K	841.24
338.15 K	830.26

Details	Normal melting temperature [°C]
[1]	5.5

c1ccccc1 [benzene] + c1cc[nH]c1
[2], x2 = 0
Details	mass density [kg/m3]
298.15 K	873.63
308.15 K	862.91
318.15 K	852.12
328.15 K	841.24
338.15 K	830.26

C1CCCCC1 [cyclohexane]
[1], 101 kPa
Details	mass density [kg/m3]
298.15 K	773.87
308.15 K	764.38
318.15 K	754.77
328.15 K	745.04
338.15 K	735.18

Details	Normal melting temperature [°C]
[1]	7

C1CCCCC1 [cyclohexane] + c1cc[nH]c1
[2], x2 = 0
Details	mass density [kg/m3]
298.15 K	773.87
308.15 K	764.38
318.15 K	754.77
328.15 K	745.04
338.15 K	735.18

c1cc[nH]c1 [pyrrole]
[1], Vibrating tube method
Details	mass density [kg/m3]
298.15 K, 100 kPa	965.54
298.15 K, 101 kPa	965.54
298.15 K, 500 kPa	965.71
298.15 K, 1000 kPa	966
298.15 K, 1500 kPa	966.3
298.15 K, 2000 kPa	966.59
298.15 K, 2500 kPa	966.9
298.15 K, 3000 kPa	967.19
298.15 K, 4000 kPa	967.77
298.15 K, 5000 kPa	968.35
308.15 K, 101 kPa	956.83
318.15 K, 101 kPa	948.03
328.15 K, 101 kPa	939.14
338.15 K, 101 kPa	930.13

Details	Normal melting temperature
[1]	-23.5 °C and -23.4 °C

c1cc[nH]c1 [pyrrole] + C1CCCCC1
mass density [kg/m3], [2]
Details	298.15 K	308.15 K	318.15 K	328.15 K	338.15 K
x1 = 0.0749	786.03	776.43	766.72	756.88	746.91
x1 = 0.1409	797.78	788.17	778.44	768.58	758.6
x1 = 0.1864	805.48	795.87	786.14	776.3	766.32
x1 = 0.2637	819.91	810.32	800.64	790.86	780.96
x1 = 0.3549	837.14	827.63	818.03	808.35	798.62
x1 = 0.4446	854.23	844.82	835.34	825.81	816.3
x1 = 0.5058	866.13	856.8	847.4	837.91	828.38
x1 = 0.6032	884.76	875.58	866.33	856.97	847.56
x1 = 0.6712	898.56	889.48	880.32	870.17	861.68
x1 = 0.7183	908.28	899.28	890.2	881.03	871.79
x1 = 0.761	916.78	907.83	898.79	889.65	880.41
x1 = 0.8376	932.14	923.29	914.35	905.29	896.1
x1 = 0.8824	941.41	932.59	923.7	914.69	905.55
x1 = 0.9424	953.79	945.05	936.21	927.25	918.18
x1 = 1	965.54	956.83	948.03	939.14	930.13

c1cc[nH]c1 [pyrrole] + c1ccccc1
mass density [kg/m3], [2]
Details	298.15 K	308.15 K	318.15 K	328.15 K	338.15 K
x1 = 0.0447	878.11	867.49	856.79	846	835.1
x1 = 0.1287	886.6	876.17	865.66	855.06	844.34
x1 = 0.2144	894.89	884.68	874.36	863.95	853.41
x1 = 0.3142	904.35	894.36	884.28	874.1	863.91
x1 = 0.3916	911.83	902.01	892.11	882.08	871.95
x1 = 0.503	922.04	912.44	902.77	892.98	883.08
x1 = 0.5973	930.57	921.15	911.66	902.07	892.35
x1 = 0.6693	936.98	927.73	918.38	908.92	899.34
x1 = 0.7371	942.99	933.85	924.62	915.29	905.82
x1 = 0.8207	950.33	941.34	932.26	923.07	913.74
x1 = 0.8732	954.72	945.81	936.8	927.7	918.46
x1 = 0.9214	958.96	950.13	941.21	932.19	923.04
x1 = 0.979	963.65	954.92	946.08	937.17	928.12
x1 = 1	965.54	956.83	948.03	939.14	930.13

Source: the NIST ThermoML archive (doi:10.1021/je100526j)
